Key:
Rattus norvegicus [1] = assay: Unbound clearance in rat at 1 mg/kg, iv or 2 mg/kg, po; assay type: ADME, organism-based; settings: in vivo
[2] = biological target: Voltage-dependent L-type calcium channel subunit alpha-1C (Homo sapiens, UniProt Q13936); assay: Displacement of [3H]-diltiazem from human Cav1.2 channel
Cytochrome P450 2C9 = Cytochrome P450 2C9 (Homo sapiens, UniProt P11712); assay: Inhibition of CYP2C9 in human liver microsomes assessed as diclofenac alpha'-hydroxylation; assay type: ADME
Sequence of Cytochrome P450 2C9 (P11712 whole entry): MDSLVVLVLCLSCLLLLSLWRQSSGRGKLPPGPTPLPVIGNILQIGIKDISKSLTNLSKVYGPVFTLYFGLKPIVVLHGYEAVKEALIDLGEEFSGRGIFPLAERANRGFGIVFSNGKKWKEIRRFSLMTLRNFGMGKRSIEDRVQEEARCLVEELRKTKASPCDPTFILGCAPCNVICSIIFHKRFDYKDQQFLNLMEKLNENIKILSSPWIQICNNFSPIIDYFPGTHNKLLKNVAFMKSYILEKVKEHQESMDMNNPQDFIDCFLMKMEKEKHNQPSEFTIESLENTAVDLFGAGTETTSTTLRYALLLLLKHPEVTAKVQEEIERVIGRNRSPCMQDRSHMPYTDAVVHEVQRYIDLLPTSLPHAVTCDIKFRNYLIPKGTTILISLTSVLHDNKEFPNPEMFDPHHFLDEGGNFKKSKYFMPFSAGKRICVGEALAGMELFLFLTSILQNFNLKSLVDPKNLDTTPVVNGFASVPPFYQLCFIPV

Rhesus monkey [3] = assay: Dose normalized total AUC in rhesus monkey at 2 mg/kg, po; assay type: ADME, organism-based, Macaca mulatta; settings: in vivo
[4] = Solubility of the compound in buffer at pH >= […]; assay type: physicochemical
[5] = Fraction unbound in rat at 1 mg/kg, iv or 2 mg/kg, po; assay type: ADME, organism-based; settings: in vivo
[6] = biological target: Beta-3 adrenergic receptor (Rattus norvegicus, UniProt P26255); assay: Agonist activity at rat beta3 adrenergic receptor expressed in CHO cells assessed as accumulation of cAMP after 30 mins by TR-FRET assay; assay type: functional, cell-based
Sequence of Beta-3 adrenergic receptor (Rattus norvegicus, UniProt P26255) (P26255 whole entry): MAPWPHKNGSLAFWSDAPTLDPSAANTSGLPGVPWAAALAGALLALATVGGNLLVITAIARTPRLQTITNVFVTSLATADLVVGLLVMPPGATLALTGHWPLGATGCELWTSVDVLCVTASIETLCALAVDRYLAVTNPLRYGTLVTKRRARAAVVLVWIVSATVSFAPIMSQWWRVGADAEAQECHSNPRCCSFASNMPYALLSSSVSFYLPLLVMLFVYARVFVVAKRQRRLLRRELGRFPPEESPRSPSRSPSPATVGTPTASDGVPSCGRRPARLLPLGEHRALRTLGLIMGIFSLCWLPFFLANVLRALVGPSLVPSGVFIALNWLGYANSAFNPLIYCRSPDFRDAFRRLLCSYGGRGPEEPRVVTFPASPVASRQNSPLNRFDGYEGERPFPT

Canis familiaris [7] = assay: Dose normalized total AUC in dog at 2 mg/kg, po; assay type: ADME, organism-based, Canis lupus familiaris; settings: in vivo
[8] = biological target: Beta-3 adrenergic receptor (Macaca mulatta) (UniProt Q28524); assay: Agonist activity at rhesus monkey beta3 adrenergic receptor expressed in CHO cells assessed as accumulation of cAMP after 30 mins by TR-FRET assay in presence of 40% serum relative to (R)-(-)-isoproterenol; assay type: functional, cell-based
Sequence of Beta-3 adrenergic receptor (Macaca mulatta) (Q28524 whole entry): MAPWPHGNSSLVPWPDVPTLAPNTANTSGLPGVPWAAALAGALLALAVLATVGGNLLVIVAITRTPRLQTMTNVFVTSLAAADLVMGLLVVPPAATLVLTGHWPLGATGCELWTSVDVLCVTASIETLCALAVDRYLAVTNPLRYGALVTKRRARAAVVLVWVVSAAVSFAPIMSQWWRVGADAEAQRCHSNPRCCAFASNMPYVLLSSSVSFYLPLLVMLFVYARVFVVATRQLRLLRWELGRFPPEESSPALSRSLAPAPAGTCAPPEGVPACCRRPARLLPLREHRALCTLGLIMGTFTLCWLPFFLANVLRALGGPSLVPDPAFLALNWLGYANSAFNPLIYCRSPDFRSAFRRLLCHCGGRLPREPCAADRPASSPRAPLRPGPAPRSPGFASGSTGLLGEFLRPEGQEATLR

Cytochrome P450 3A4 = Cytochrome P450 3A4 (Homo sapiens, UniProt P08684); assay: Inhibition of CYP3A4 in human liver microsomes assessed as testosterone 6beta-hydroxylation; assay type: ADME
Sequence of Cytochrome P450 3A4 (P08684 whole entry): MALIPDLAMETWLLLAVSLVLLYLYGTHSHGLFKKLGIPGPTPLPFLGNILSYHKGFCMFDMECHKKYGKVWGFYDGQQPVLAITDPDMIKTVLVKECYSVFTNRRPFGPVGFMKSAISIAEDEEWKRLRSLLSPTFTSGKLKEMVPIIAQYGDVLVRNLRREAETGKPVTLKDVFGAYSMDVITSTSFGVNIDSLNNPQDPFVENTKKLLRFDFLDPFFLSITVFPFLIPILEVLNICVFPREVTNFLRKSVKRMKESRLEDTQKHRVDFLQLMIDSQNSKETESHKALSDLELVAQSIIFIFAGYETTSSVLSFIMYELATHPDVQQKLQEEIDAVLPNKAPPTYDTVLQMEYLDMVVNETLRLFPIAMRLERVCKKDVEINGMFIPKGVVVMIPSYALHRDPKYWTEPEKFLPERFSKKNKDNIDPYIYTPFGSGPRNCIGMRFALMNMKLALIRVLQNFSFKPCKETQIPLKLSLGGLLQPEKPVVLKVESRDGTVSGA

Rattus norvegicus [9] = assay: Dose normalized total AUC in rat at 2 mg/kg, po; assay type: ADME, organism-based; settings: in vivo
[10] = Distribution coefficient, logD of the compound at pH 7.4; assay type: physicochemical; settings: octanol/water
Cytochrome P450 2D6 = Cytochrome P450 2D6 (Homo sapiens, UniProt P10635); assay: Inhibition of CYP2D6 in human liver microsomes assessed as dextraomethorphan O-demethylation; assay type: ADME
Sequence of Cytochrome P450 2D6 (P10635 whole entry): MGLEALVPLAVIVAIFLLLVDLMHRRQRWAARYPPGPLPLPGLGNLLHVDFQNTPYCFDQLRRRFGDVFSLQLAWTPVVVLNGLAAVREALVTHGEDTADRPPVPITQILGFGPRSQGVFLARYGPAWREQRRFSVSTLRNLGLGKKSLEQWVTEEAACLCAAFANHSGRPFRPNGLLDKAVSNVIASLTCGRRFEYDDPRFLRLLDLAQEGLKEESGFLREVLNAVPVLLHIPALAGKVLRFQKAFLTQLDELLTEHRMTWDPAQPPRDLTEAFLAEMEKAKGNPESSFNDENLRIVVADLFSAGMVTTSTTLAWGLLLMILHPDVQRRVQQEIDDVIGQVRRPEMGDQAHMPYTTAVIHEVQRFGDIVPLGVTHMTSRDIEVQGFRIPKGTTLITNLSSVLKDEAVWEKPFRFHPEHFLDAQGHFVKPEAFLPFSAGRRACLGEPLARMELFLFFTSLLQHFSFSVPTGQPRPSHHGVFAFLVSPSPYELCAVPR

[11] = Fraction unbound in rhesus monkey at 0.5 mg/kg, iv or 2 mg/kg, po; assay type: ADME, organism-based, Macaca mulatta; settings: in vivo
[12] = biological target: Voltage-gated inwardly rectifying potassium channel KCNH2 (Homo sapiens, UniProt Q12809); assay: Binding affinity to human ERG channel
Sequence of Voltage-gated inwardly rectifying potassium channel KCNH2 (Q12809 whole entry): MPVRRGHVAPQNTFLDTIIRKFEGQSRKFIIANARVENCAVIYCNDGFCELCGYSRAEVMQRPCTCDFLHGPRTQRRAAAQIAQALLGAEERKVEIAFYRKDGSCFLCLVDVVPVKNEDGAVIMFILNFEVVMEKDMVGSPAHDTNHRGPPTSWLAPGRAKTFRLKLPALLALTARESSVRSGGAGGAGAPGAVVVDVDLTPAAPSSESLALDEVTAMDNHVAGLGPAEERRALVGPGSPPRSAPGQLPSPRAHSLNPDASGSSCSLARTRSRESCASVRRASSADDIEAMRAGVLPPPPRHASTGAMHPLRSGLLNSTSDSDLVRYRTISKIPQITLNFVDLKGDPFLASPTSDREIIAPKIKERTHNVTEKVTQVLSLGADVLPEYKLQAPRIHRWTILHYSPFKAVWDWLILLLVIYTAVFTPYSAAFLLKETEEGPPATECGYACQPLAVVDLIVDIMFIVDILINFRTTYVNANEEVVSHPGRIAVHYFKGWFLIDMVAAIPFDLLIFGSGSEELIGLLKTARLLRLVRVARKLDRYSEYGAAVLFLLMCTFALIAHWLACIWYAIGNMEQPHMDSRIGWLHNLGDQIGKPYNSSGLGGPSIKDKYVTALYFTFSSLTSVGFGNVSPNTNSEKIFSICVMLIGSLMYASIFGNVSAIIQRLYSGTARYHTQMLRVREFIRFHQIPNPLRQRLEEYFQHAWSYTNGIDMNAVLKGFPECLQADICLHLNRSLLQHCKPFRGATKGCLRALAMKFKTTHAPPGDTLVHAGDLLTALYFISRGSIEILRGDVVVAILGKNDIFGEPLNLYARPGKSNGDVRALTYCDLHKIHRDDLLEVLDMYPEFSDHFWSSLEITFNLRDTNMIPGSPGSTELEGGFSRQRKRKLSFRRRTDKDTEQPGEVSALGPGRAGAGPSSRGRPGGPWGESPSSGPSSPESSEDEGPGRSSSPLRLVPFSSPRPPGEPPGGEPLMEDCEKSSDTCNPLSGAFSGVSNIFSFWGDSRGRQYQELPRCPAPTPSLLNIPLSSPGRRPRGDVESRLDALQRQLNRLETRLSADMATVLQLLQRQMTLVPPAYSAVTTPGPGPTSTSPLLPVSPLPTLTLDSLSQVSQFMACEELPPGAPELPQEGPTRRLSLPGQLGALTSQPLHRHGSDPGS

[13] = biological target: Beta-3 adrenergic receptor (Rattus norvegicus) (UniProt P26255); assay: Agonist activity at rat beta3 adrenergic receptor expressed in CHO cells assessed as accumulation of cAMP after 30 mins by TR-FRET assay relative to (R)-(-)-isoproterenol; assay type: functional, cell-based
Sequence of Beta-3 adrenergic receptor (Rattus norvegicus) (P26255 whole entry): as the sequence (P26255 whole entry) above

[14] = biological target: T1, Beta-3 adrenergic receptor (Homo sapiens, UniProt P13945); assay: Agonist activity at human adrenergic beta3 receptor expressed in CHO cells assessed as accumulation of cAMP after 30 mins by TR-FRET assay in presence of 40% serum relative to (R)-(-)-isoproterenol; assay type: functional, cell-based
T1 sequence (P13945 whole entry, looked up): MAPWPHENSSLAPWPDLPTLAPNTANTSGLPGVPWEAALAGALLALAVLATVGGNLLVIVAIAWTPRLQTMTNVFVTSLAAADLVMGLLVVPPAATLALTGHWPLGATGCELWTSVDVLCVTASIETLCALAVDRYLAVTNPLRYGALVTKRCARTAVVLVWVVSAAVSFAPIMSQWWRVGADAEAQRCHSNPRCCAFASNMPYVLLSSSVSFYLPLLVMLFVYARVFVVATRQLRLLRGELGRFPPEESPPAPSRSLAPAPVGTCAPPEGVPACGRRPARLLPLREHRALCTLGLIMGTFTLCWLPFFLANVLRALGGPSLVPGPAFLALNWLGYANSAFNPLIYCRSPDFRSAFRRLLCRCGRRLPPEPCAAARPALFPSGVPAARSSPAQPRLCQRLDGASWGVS

[15] = biological target: T2, Beta-3 adrenergic receptor (Macaca mulatta, UniProt Q28524); assay: Agonist activity at rhesus monkey beta3 adrenergic receptor expressed in CHO cells assessed as accumulation of cAMP after 30 mins by TR-FRET assay; assay type: functional, cell-based
T2 sequence (Q28524 whole entry): as the sequence (Q28524 whole entry) above

[16] = Oral bioavailability in rat at 2 mg/kg; assay type: ADME, organism-based; settings: in vivo
[17] = biological target: Sodium-dependent serotonin transporter (Homo sapiens, UniProt P31645); assay: Inhibition of human SERT expressed in HEK293 cells preincubated for 30 mins followed by fluorescent substrate addition measured after 30 mins by plate reader analysis; assay type: cell-based
Sequence of Sodium-dependent serotonin transporter (P31645 whole entry): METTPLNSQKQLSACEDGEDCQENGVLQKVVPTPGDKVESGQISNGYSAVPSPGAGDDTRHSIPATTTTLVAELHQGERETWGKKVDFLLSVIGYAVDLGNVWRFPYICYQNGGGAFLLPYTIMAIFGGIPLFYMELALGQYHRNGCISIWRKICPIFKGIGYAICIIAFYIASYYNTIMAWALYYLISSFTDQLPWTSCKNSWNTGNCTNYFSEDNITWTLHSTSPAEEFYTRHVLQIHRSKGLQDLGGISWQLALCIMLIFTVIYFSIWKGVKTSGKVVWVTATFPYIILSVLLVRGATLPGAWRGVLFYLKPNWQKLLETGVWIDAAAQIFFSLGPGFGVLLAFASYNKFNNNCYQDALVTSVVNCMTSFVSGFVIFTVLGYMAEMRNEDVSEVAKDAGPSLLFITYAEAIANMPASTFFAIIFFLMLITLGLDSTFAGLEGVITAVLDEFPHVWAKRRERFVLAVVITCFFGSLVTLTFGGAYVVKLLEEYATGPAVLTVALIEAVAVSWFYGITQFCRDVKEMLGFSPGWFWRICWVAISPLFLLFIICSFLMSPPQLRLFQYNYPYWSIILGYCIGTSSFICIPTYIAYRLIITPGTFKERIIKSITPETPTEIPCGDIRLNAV

Canis familiaris [18] = assay: Unbound clearance in dog at 0.5 mg/kg, iv or 2 mg/kg, po; assay type: ADME, organism-based, Canis lupus familiaris; settings: in vivo
[19] = biological target: T2, Beta-3 adrenergic receptor; assay: Agonist activity at rhesus monkey beta3 adrenergic receptor expressed in CHO cells assessed as accumulation of cAMP after 30 mins by TR-FRET assay in presence of 40% serum; assay type: functional, cell-based
[20] = biological target: Beta-3 adrenergic receptor (Canis lupus familiaris, UniProt O02662); assay: Agonist activity at dog beta3 adrenergic receptor expressed in CHO cells assessed as accumulation of cAMP after 30 mins by TR-FRET assay; assay type: functional, cell-based
Sequence of Beta-3 adrenergic receptor (Canis lupus familiaris, UniProt O02662) (O02662 whole entry): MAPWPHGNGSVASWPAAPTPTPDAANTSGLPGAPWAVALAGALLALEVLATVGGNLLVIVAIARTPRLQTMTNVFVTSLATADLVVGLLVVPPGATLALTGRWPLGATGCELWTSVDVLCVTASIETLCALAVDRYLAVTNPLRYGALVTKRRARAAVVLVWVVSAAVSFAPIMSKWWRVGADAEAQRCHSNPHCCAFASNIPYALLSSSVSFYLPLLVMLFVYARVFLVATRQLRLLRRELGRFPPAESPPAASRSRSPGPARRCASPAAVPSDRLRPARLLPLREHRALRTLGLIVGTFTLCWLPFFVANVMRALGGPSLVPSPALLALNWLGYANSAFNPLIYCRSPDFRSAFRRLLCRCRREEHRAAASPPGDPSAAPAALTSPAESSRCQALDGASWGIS

[21] = biological target: T1, Beta-3 adrenergic receptor; assay: Agonist activity at human beta3 adrenergic receptor expressed in CHO cells assessed as accumulation of cAMP after 30 mins by TR-FRET assay relative to (R)-(-)-isoproterenol; assay type: functional, cell-based
[22] = Oral bioavailability in dog at 2 mg/kg; assay type: ADME, organism-based, Canis lupus familiaris; settings: in vivo
[23] = biological target: Beta-3 adrenergic receptor (Macaca mulatta) (UniProt Q28524); assay: Agonist activity at rhesus monkey beta3 adrenergic receptor expressed in CHO cells assessed as accumulation of cAMP after 30 mins by TR-FRET assay relative to (R)-(-)-isoproterenol; assay type: functional, cell-based
[24] = Fraction unbound in dog at 0.5 mg/kg, iv or 2 mg/kg, po; assay type: ADME, organism-based, Canis lupus familiaris; settings: in vivo
[25] = Oral bioavailability in rhesus monkey at 2 mg/kg; assay type: ADME, organism-based, Macaca mulatta; settings: in vivo
Rhesus monkey [26] = assay: Unbound clearance in rhesus monkey at 0.5 mg/kg, iv or 2 mg/kg, po; assay type: ADME, organism-based, Macaca mulatta; settings: in vivo
[27] = Induction of phospholidosis in human HepG2 cells incubated overnight by […] in presence of fluorescent labeled phospholipid probe NBD-PE; assay type: cell-based; settings: read-out: A50

CL free (Rattus norvegicus [1]): > 3100 mL/min/kg
IC50 (Cytochrome P450 2C9): 24 µM
AUC/dose (Rhesus monkey [3]): 50 nM·h/mg/kg
solubility [4]: < 100 µg/mL
fraction unbound [5]: ≤ 0.02
EC50 [6]: 3.4 µM
AUC/dose (Canis familiaris [7]): 290 nM·h/mg/kg
max activation [8]: 17%
IC50 (Cytochrome P450 3A4): 9.3 µM
AUC/dose (Rattus norvegicus [9]): 70 nM·h/mg/kg
logD [10]: 4.7
IC50 (Cytochrome P450 2D6): 11 µM
fraction unbound [11]: ≤ 0.02
max activation [13]: 17%
max activation [14]: 106%
EC50 [15]: 0.00043 µM
bioavailability [16]: 17%
IC50 [17]: 5 µM
CL free (Canis familiaris [18]): > 1000 mL/min/kg
EC50 [19]: 0.017 µM
EC50 [20]: 0.025 µM
max activation [21]: 93%
bioavailability [22]: 27%
max activation [23]: 81%
fraction unbound [24]: ≤ 0.02
bioavailability [25]: 4%
CL free (Rhesus monkey [26]): > 950 mL/min/kg
AC50 [27]: 0.56 µM
Structure (SMILES): O=S(=O)(Nc1ccc(CCNC[C@H](O)c2cccnc2)cc1)c1ccc(-c2nc(-c3ccc(C(F)(F)F)cc3)cs2)cc1
IC50 [2]: 1.7 µM
IC50 [12]: 0.22 µM
